Assay results from patent publication US8916149B2, “Preventing and treating sepsis” (University of Rochester, priority 2008, dated 2014).

Key:
[1] = system: septic mice; conditions: 'mid-grade' sepsis (CLP), 200 μg i.v. 12 hours before and after CLP
Experimental: (§1) 200 μg of the RGD peptide or PBS was given 12 hours before and after CLP via i.v. injection (n=20 per group). […] 200 μg of the RGD peptide or PBS was given via i.v. injection before receiving […] of LPS (i.p.) (n=10 per group). The statistical significance of mortality was determined by the Kaplan-Meyer log-rank test.
CLP was used to induce acute septic peritonitis as described (Rhee et al., J Surg Res 115:74 (2003)). Briefly, mice (C57BL/6, 6-8 weeks) were anesthetized using inhaled Isoflurane, a midline incision (approximately 1 cm) was made below the diaphragm, the cecum was […], ligated approximately […] distal and then punctured through and through with a 22-gauge needle. Cecum was gently squeezed to excise its contents. Sham animals underwent the same procedure with no ligation or puncture. The abdominal incision was then closed in layers with Ethilon 6.0 suture. Mice were resuscitated with 1.0 ml of Ringer's solution via subcutaneous injection. Animals recovered under a heat lamp for approximately 30 minutes and were allowed food and water ad lib.

[2] = system: mice challenged with an LD90 of LPS; conditions: LPS at LD90, single dose 200 μg i.v.; control 90%
Experimental: as §1
In order to examine whether the RGD peptide alters mortality in ‘high-grade’ sepsis, 90% mortality was induced by endotoxemia.

[3] = molecular target: β1 integrins (Homo sapiens, UniProt P05556); conditions: cited from earlier work
β1 integrins, sequence (P05556 21-798): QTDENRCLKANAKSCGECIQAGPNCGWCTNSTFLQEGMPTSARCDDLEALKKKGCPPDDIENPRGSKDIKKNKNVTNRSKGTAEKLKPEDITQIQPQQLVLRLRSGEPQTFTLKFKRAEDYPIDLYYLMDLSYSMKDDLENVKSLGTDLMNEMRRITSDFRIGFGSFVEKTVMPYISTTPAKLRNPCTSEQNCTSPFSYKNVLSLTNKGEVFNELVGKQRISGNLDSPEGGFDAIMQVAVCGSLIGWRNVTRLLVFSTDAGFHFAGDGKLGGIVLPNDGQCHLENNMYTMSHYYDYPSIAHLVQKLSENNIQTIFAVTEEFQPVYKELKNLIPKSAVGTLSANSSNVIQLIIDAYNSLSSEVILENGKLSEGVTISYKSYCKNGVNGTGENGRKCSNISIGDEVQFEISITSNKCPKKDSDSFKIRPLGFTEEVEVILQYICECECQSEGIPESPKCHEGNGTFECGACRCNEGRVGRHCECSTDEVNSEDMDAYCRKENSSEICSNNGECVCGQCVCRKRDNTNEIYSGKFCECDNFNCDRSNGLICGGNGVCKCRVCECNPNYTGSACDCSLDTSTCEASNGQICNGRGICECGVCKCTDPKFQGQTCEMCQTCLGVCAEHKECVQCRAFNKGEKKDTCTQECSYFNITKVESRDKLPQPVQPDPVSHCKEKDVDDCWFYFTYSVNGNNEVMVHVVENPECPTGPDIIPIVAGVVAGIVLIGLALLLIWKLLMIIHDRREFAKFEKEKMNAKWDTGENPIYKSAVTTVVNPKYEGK

[4] = molecular target: T1, β3 integrins (Homo sapiens, UniProt P05106); conditions: cited from earlier work
T1 sequence (P05106 27-788): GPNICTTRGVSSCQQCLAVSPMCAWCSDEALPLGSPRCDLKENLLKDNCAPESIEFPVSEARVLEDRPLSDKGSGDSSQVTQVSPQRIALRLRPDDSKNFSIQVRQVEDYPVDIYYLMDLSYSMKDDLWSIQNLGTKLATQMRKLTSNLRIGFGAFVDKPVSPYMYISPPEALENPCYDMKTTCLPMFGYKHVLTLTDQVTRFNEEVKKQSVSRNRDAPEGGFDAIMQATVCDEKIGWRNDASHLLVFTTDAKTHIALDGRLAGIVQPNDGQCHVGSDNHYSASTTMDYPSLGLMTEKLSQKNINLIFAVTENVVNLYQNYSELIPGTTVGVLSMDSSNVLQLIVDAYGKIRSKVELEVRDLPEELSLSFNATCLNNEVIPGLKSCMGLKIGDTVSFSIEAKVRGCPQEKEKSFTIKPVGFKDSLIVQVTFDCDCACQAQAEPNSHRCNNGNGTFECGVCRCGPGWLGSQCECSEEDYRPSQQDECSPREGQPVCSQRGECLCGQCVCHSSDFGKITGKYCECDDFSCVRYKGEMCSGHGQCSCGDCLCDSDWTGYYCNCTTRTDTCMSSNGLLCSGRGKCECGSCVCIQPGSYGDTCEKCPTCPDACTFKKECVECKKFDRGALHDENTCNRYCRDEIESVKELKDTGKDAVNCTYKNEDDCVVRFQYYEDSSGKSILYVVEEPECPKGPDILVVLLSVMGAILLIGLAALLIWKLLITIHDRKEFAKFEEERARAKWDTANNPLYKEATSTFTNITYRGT

[5] = system: β1 and β3 integrin expressing HEK293T cells; experiment: Yeast surface display binding of mutant APCs on HEK293 cells; set-up: species or system human
Excerpt: A broad-range of hosts and scaffolds based on ribosome display, phage display, and cell-surface display are used widely as systems to implement directed evolution (Hoogenboom, Nat. Biotechnol. 23:1105 (2005)). Among the cell surface display systems based on microbial and eukaryotic hosts, the yeast system offers the unique advantage of eukaryotic machinery that enables post-translational modification, glycosylation, and disulfide isomerization (Wittrup, Curr. Opin. Biotechnol. 12:392 (2001)). […] The yeast display system that was used employs the α-agglutinin yeast adhesion receptor to display recombinant proteins on cell surface of S. cerevisiae. The receptor consists of two proteins, Aga1 and Aga2 (FIG. 6). Aga1 is secreted and becomes covalently attached to β-glucan in the extracellular matrix of the yeast cell wall. Aga2 binds to Aga1 through two disulfide bonds, making it possible to express a protein of interest fused to Aga2.
Mixtures of 1 μg cDNA library and 0.5 μg of the Nhe1/BamH1 linearized pCTCON vector in 5 μl were transformed into 10^8 yeast cells by electroporation, which lead to ˜10^6 diversity in the library. Inside the cells, the cDNA library was recombined into the vector by the endogenous Gap repair protein. The yeast library of the human protein C was activated by thrombin. […]

[6] = system: human neutrophils; experiment: Neutrophil adhesion assay on immobilized fibronectin (FN); format: cell-based; conditions: 10 μg/ml protein
Experimental: The adhesion assay was carried out essentially as described (Vorup-Jensen et al., PNAS 102:1614 (2005)). Cover slips were coated with FN in coating buffer (150 mM NaCl/20 mM Tris.HCl, pH 9.0) for over night at 4° C. and for 4 hours at room temperature. Residual binding sites were blocked by incubation of the wells with 0.05% (wt/vol) polyvinylpyrrolidone in PBS for 30 minutes at room temperature. […] The cover slips were aspirated, and washed with L15 medium. […] Cells (250 μl) were then immediately added, and further incubated at 37° C. for 15 minutes. Unbound cells were then washed with warm L15 medium. The bound cells were then fixed with formaldehyde. For each experimental condition from three independent donors, five random phase-contrast images were obtained, and the number of cells in each well was scored from printed micrographs.

[7] = molecular target: T2, hEPCR-mCFP and β1-mYFP (Homo sapiens, UniProt P05556+Q9UNN8); experiment: Dynamic FRET (TIRF) between hEPCR-mCFP and β1-mYFP in HEK293 cells; format: cell-based
T2 construct: expressed in transfected cells; host or cells: HEK293
T2 sequence (Q9UNN8 18-238): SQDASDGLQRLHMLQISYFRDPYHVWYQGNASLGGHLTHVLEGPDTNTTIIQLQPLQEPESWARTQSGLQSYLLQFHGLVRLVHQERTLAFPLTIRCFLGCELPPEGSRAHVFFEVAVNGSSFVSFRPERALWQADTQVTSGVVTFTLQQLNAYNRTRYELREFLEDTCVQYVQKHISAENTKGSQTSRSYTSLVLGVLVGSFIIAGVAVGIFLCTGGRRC
T2 sequence (P05556 21-798): as the sequence (P05556 21-798) above
Experimental: Dynamic FRET imaging was carried out using a Nikon Eclipse TE2000-U microscope (Nikon, Melville, N.Y.) equipped with a Dual-View (Optical Insights, Tucson, Ariz.) and CFP/YFP dual-band filter set (Chroma, Rockingham, Vt.). TIRF imaging was performed with a white light TIRF aperture diaphragm and a 100×TIRF 1.49 NA oil immersion objective coupled to a QuantEM EMCCD (Roper Scientific, Tucson, Ariz.). The microscope was controlled by NIS element software (Nikon, Melville, N.Y.) and data analysis was performed with AutoDeblur (Autoquant Imaging, Troy, N.Y.) by the sensitized emission method (Gordon et al., Biophys. J. 74:2702 (1998)). 48 hours after co-transfection with hEPCR-mCFP and β1-mYFP DNA construct in Delta T dish (Fisher Scientific, Pittsburgh, Pa.), HEK293 cells were washed with PBS and then 1 ml L15 medium supplemented with 2 mg/ml D-glucose. Cells were equilibrated for about 10 minutes at 37° C. in a FCS2 live cell imaging chamber (Bioptechs, Butler, Pa.). […]
Therefore, it was tested whether the anti-EPCR antibody relieved the rhAPC-induced inhibition of neutrophil adhesion on FN. […] Since the ligand will only bind to cell surface receptors, optical measurements were confined to the plasma membrane using through the objective total internal reflection fluorescence (TIRF).

acetyl-c[(penicillamine)-O-methyltyrosine-ARGDN(tetrahydroisoquinoline-3-carboxylic acid)C]—NH2 [RGD peptide]
7-day mortality [1]: no significant change | time of survival [1]: reproducibly prolonged | mortality [2]: 60% | affinity to β1 integrins [3]: high affinity | affinity to β3 integrins [4]: high affinity

B1: KR146/147GG+R177G: APC with combined substitutions K146G, R147G and R177G (protein)
chain: ANSFLEELRHSSLERECIEEICDFEEAKEIFQNVDDTLAFWSKHVDGDQCLVLPLEHPCASLCCGHGTCIDGIGSFSCDCRSGWEGRFCQREVSFLNCSLDNGGCTHYCLEEVGWRRCSCAPGYKLGDDLLQCHPAVKFPCGRPWGGMEKKRSHLKRDTEDQEDQVDPRLIDGKMTGRGDSPWQVVLLDSKKKLACGAVLIHPSWVLTAAHCMDESKKLLVRLGEYDLRRWEKWELDLDIKEVFVHPNYSKSTTDNDIALLHLAQPATLSQTIVPICLPDSGLAERELNQAGQETLVTGWGYHSSREKEAKRNRTFVLNFIKIPVVPHNECSEVMSNMVSENMLCAGILGDRQDACEGDSGGPMVASFHGTWFLVGLVSWGEGCGLLHNYGVYTKVSRYLDWIHGHIRDKEAPQKSWAP
binding of yeast expressing mutant APC on HEK293 cells compared to WT APC [5]: further enhanced

B2: Gla-less APC: mutant form of APC that lacks the EPCR binding motif (Enzyme Research Lab.) (protein)
chain: SKHVDGDQCLVLPLEHPCASLCCGHGTCIDGIGSFSCDCRSGWEGRFCQREVSFLNCSLDNGGCTHYCLEEVGWRRCSCAPGYKLGDDLLQCHPAVKFPCGRPWKRMEKKRSHLLIDGKMTRRGDSPWQVVLLDSKKKLACGAVLIHPSWVLTAAHCMDESKKLLVRLGEYDLRRWEKWELDLDIKEVFVHPNYSKSTTDNDIALLHLAQPATLSQTIVPICLPDSGLAERELNQAGQETLVTGWGYHSSREKEAKRNRTFVLNFIKIPVVPHNECSEVMSNMVSENMLCAGILGDRQDACEGDSGGPMVASFHGTWFLVGLVSWGEGCGLLHNYGVYTKVSRYLDWIHGHIRDKEAPQKSWAP
fMLP-induced adhesion of human neutrophils to immobilized FN [6]: inhibited adhesion to a slightly less, but similar, degree as the wild type protein | FRET efficiency between EPCR-mCFP and β1-mYFP [7]: No obvious FRET change
